Measurements as given in US20260191196A1, “COMPOSITIONS AND METHODS FOR IMPROVING SOIL MICROBIAL POPULATIONS” (SYNGENTA CROP PROTECTION AG, priority 2022, published 2026).

System: bacteria (16S) and fungi (ITS) communities
Assay: Potato field trial: soil microbiome community and biodiversity
Type: in vivo, potato (Solanum tuberculosum L.)
Settings: not given
Description: In this experiment, assuming that biodiversity can be measured by the taxonomic richness and abundance of each taxon, the differences between treatments are determined and their effect on populations and beneficial species over time is verified. This leads to testing two hypotheses. Firstly, there is an impact of cyclobutrifluram applications on microbial diversity. Secondly, the use of cyclobutrifluram improves beneficial microbial diversity over time. These hypotheses were tested in two potato farms in the USA.
The experiment was carried out in two potato (Solanum tuberculosum L.) fields located in two test locations in Louisiana, USA, described as locations A and B in Table 2. In each experimental field, three products were tested in an area of 10 m^2 (Table 3) and three replicates per product were established by complete block randomized. To evaluate the effects on the microbiome a “Check” plot (untreated) was established. In addition, fluopyram was employed as a comparative example. Fluopyram is a widely used fungicide and nematicide, and represents the industry standard herein.
To analyse the microbial biodiversity, three soil samples were taken per treatment and each sample consisted of soil collected from three different points within the plots. In this way, the effect of soil variability was minimized, since there were nine samples per treatment. […]
As set out above, to detect microbial community modifications in the soil microbiome associated with the cyclobutrifluram treatment, PCR amplification and successive high-throughput sequencing of bacterial and fungal taxonomical marker genes (the small-subunit ribosomal RNA gene (16S) and the ribosomal internal transcribed spacers (ITS) respectively) were performed on plant-associated soil samples. An exploratory data analysis was conducted to describe the microbial biodiversity and the behaviour of the percentage of the abundance of species under the evaluated factors. […]

Row | SMILES | beneficial effect on soil microbiome
1 | O=C(NCCc1ncc(C(F)(F)F)cc1Cl)c1ccccc1C(F)(F)F [fluopyram] | did not show any beneficial effect

Same assay, conditions: 250 gai/ha

Row | SMILES | impact on plant-pathogenic microbes
2 | O=C(NCCc1ncc(C(F)(F)F)cc1Cl)c1ccccc1C(F)(F)F [fluopyram] | showed an impact in promoting in particular plant-pathogenic microbes

System: arbuscular mycorrhizae fungi
Assay: Mycorrhization in soybean roots after seed treatment
Type: in vivo
Settings: Glycine max; soybean variety Toliman, seed treatment 0.15 mg ai/seed, mycorrhizal inoculant Blend A; relative to control; read-out: [%] arbuscular mycorrhizae fungi colonization vs. control.
Description: Soybeans of variety Toliman were treated with 0.15 mg ai/seed of cyclobutrifluram and analogues, and planted in 1.5 L pots of 0-3 mm sieved soil. The seeds were inoculated with Bradyrhizobium japonicum using a commercially available product for soybeans.
In a first series, for each active ingredient tested, 15 replicate pots were sowed. In each pot, 3 seeds were sowed. After germination, 2 seedling was removed from each pot to a final number of 1 plant per pot. Each pot was inoculated with a small amount of a mycorrhizal inoculant (Blend A, commercially available from Symbiom, Czech Republic). The plants were grown in a greenhouse for 81 days under the following conditions: Humidity at 45-64%, Temperature of 22° C. to 24° C., in a 16/8 hour day/night cycle. In a further test series, Soybeans seeds treated as outlined above were then planted in 1 Lpots of 0-3 mm sieved soil. For each active ingredient, 8 replicate pots were sowed, whereby in each pot, 3 seeds were sowed. After germination, 2 seedlings were removed from each pot to a final number of 1 plant per pot.
The plants were then grown in a growth chamber for 42 days with the following conditions: Temperature of 20° C. and with a 12/12 hour day/night.
After harvest, the percent mycorrhization was quantified using the methods of McGonigle et al. (T. P. McGONIGLE, M. H. MILLER and D. G. EVANS et al., “A new method which gives an objective measure of colonization of roots by vesicular-arbuscular mycorrhizal fungi”. New Phytol. Vol. 115 (3): 495-501.).

Row | SMILES | response vs control in vivo at 0.15 mg/seed
3 | O=C(N[C@H]1CC[C@H]1c1ccc(F)cc1Cl)c1cccnc1C(F)(F)F [Compound A2] | 72%
4 | O=C(N[C@@H]1CO[C@@H]1c1ccc(F)cc1F)c1nccnc1C(F)(F)F (racemic) [Compound A5] | 81%
5 | O=C(N[C@@H]1CO[C@@H]1c1ccc(Cl)cc1Cl)c1cccnc1C(F)(F)F (racemic) [Compound A7] | 76%
6 | O=C(N[C@H]1CC[C@H]1c1ccc(F)cc1Cl)c1ncccc1C(F)(F)F [Compound A3] | 84%
7 | O=C(N[C@@H]1CO[C@@H]1c1ccc(Cl)cc1Cl)c1nccnc1C(F)(F)F (racemic) [Compound A6] | 97%
8 | O=C(N[C@H]1CC[C@H]1c1ccc(F)cc1F)c1nccnc1C(F)(F)F [Compound A1] | 61%
9 | O=C(N[C@H]1CC[C@H]1c1ccc(F)cc1F)c1ncccc1C(F)(F)F [Compound A4] | 67%
